Assays:
Assay in all cases: Protein kinase inhibition assay
Type in all cases: biochemical
BrSK2(h) = BrSK2(h) (Homo sapiens, UniProt Q8IWQ3); conditions: read-out: percent residual activity of BrSK2(h)
Description: (§1) Certain compounds were tested for activity in protein kinase inhibition assays. All substrates were dissolved and diluted to working stocks in de-ionized water, apart from histone H1 (10× working stock in 20 mM MOPS pH 7.0), PDKtide (10× working stock in 50 mM Tris pH 7.0) ATF2 (which is typically stored at a 20× working stock in 50 mM Tris pH 7.5, 150 mM NaCl, 0.1 mM EGTA, 0.03% Brij-35, 50% glycerol, 1 mM benzamidine, 0.2 mM PMSF and 0.1% R-mercaptoethanol), KKLNRTLSFAEPG (SEQ ID NO:203) and RRRLSFAEPG (SEQ ID NO:204) (50 mM HEPES pH 7.4) and GGEEEEYFELVKKKK (SEQ ID NO:205) (20 mM MOPS pH 7.0). All kinases were pre-diluted to a 10× working concentration prior to addition into the assay. The composition of the dilution buffer for each kinase is detailed below.

CDK9/cyclin T1(h) = CDK9/cyclin T1(h) (Homo sapiens, UniProt P50750); conditions: read-out: percent residual activity of CDK9/cyclin T1(h)
Description: as §1

CK1γ1(h) = CK1γ1(h) (Homo sapiens, UniProt Q9HCP0); conditions: read-out: percent residual activity of CK1γ1(h)
Description: as §1

CaMKI(h) = CaMKI(h) (Homo sapiens, UniProt Q14012); conditions: read-out: percent residual activity of CaMKI(h)
Description: as §1

DCAMKL2(h) = DCAMKL2(h) (Homo sapiens, UniProt Q8N568); conditions: read-out: percent residual activity of DCAMKL2(h)
Chain of DCAMKL2(h) (Q8N568 whole entry): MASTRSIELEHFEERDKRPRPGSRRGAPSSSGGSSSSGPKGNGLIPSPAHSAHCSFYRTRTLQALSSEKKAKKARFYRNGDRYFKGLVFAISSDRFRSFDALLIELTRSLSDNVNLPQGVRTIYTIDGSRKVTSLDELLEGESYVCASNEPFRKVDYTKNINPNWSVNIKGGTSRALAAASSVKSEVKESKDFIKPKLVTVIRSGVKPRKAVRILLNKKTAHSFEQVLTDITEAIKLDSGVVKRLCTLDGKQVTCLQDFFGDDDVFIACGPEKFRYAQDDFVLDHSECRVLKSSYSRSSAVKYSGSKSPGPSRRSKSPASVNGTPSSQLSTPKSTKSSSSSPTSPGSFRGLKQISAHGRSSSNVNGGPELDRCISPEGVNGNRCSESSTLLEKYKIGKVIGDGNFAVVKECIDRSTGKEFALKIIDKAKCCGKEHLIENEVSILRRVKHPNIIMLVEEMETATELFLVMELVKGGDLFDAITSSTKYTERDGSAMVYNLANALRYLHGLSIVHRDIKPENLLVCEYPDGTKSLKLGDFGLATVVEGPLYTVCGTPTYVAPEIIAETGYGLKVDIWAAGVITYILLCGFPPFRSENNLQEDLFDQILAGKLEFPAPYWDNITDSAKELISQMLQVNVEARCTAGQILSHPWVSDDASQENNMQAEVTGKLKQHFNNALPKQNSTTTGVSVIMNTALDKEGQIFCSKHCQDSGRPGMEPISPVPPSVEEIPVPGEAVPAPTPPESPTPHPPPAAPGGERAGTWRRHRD
Description: as §1

DRAK1(h) = target: T1, DRAK1(h) (Homo sapiens, UniProt Q9UEE5); conditions: for remaining activity at 2.5 µM: read-out: percent residual activity of DRAK1(h)
T1 sequence (Q9UEE5 1-414): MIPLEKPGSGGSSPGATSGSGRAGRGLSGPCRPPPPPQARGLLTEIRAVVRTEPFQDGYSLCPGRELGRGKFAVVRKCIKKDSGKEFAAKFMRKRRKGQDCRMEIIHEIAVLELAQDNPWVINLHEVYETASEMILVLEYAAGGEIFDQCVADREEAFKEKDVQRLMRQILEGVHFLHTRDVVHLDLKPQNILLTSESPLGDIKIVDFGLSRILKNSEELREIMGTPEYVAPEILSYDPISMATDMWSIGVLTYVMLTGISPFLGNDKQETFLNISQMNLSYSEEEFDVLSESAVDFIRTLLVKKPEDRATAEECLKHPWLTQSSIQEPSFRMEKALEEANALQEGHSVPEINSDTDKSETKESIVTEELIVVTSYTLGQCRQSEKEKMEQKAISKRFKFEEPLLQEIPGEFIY
Description: as §1

DYRK2(h) = DYRK2(h) (Homo sapiens, UniProt Q92630); conditions: read-out: percent residual activity of DYRK2(h)
Description: as §1

EphA1(h) = EphA1(h) (Homo sapiens, UniProt P21709); conditions: read-out: percent residual activity of EphA1(h)
Description: as §1

EphB1(h) = EphB1(h) (Homo sapiens, UniProt P54762); conditions: read-out: percent residual activity of EphB1(h)
Description: as §1

HIPK1(h) = HIPK1(h) (Homo sapiens, UniProt Q86Z02); conditions: read-out: percent residual activity of HIPK1(h)
Chain of HIPK1(h) (Q86Z02 whole entry): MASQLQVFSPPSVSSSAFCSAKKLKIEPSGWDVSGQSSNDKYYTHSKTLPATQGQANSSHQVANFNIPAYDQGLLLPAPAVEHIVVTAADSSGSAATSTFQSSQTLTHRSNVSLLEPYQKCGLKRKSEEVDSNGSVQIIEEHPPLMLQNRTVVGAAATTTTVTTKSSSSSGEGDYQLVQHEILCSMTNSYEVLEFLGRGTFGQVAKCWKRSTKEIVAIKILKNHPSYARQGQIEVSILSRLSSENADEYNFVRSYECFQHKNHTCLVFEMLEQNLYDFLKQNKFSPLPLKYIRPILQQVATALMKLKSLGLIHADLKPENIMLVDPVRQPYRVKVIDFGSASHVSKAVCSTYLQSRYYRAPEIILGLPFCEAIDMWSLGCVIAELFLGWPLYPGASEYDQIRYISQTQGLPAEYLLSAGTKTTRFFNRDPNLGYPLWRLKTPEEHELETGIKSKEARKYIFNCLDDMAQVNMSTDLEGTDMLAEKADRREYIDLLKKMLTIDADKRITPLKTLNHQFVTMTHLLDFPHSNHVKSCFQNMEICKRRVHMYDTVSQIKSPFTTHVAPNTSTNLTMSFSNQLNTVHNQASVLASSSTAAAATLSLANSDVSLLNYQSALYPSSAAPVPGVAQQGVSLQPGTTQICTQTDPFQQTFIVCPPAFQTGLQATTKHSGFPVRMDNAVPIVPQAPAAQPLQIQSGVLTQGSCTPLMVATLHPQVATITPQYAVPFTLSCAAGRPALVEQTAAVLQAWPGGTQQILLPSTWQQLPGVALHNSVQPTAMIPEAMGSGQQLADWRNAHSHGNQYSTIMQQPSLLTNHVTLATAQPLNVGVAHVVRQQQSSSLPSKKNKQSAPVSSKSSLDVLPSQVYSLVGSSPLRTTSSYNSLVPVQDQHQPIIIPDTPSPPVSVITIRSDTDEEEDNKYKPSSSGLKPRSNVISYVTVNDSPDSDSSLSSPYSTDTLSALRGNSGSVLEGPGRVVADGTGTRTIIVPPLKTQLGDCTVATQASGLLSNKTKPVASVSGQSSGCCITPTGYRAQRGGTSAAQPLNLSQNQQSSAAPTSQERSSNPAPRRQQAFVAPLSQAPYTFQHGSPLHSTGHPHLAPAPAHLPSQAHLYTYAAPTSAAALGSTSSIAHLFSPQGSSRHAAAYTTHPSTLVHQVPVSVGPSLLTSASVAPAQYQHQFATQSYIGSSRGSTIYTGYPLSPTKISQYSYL
Description: as §1

IRAK1(h) = IRAK1(h) (Homo sapiens, UniProt P51617); conditions: read-out: percent residual activity of IRAK1(h)
Description: as §1

Itk(h) = Itk(h) (Homo sapiens, UniProt Q08881); conditions: read-out: percent residual activity of Itk(h)
Description: as §1

LIMK1(h) = LIMK1(h) (Homo sapiens, UniProt P53667); conditions: read-out: percent residual activity of LIMK1(h)
Description: as §1

MST3(h) = MST3(h) (Homo sapiens, UniProt Q9Y6E0); conditions: read-out: percent residual activity of MST3(h)
Chain of MST3(h) (Q9Y6E0 whole entry): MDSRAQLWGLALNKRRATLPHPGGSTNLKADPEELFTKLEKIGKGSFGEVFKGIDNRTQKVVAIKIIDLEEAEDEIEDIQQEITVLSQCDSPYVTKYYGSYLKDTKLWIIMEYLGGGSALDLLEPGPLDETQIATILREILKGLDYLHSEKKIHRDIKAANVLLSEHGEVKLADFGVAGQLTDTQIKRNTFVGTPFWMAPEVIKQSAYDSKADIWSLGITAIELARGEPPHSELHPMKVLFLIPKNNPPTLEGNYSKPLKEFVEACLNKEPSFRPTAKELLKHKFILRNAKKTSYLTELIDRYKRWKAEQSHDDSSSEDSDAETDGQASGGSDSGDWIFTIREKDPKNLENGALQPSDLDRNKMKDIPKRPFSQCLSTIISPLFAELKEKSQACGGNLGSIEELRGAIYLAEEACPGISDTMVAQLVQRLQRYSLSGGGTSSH
Description: as §1

Mnk2(h) = Mnk2(h) (Homo sapiens, UniProt Q9HBH9); conditions: read-out: percent residual activity of Mnk2(h)
Description: as §1

NEK3(h) = NEK3(h) (Homo sapiens, UniProt P51956); conditions: read-out: percent residual activity of NEK3(h)
Chain of NEK3(h) (P51956 whole entry): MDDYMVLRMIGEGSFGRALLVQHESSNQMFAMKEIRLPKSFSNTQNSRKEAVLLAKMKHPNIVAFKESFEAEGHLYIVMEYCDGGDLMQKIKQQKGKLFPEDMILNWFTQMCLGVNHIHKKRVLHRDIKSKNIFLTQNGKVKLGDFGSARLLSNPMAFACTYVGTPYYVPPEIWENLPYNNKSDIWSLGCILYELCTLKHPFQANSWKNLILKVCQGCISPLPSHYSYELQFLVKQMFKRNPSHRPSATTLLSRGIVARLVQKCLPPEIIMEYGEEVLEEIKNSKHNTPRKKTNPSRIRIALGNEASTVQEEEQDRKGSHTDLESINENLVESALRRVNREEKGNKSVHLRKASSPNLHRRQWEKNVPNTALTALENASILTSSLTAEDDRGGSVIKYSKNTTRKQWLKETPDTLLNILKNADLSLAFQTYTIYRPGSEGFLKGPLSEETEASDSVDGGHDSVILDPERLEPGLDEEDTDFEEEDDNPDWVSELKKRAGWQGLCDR
Description: as §1

NLK (h) = NLK (h) (Homo sapiens, UniProt Q9UBE8); conditions: read-out: percent residual activity of NLK (h)
Description: as §1

PAK5(h) = PAK5(h) (Homo sapiens, UniProt Q9P286); conditions: read-out: percent residual activity of PAK5(h)
Description: as §1

PASK(h) = PASK(h) (Homo sapiens, UniProt Q96RG2); conditions: for remaining activity at 2.5 µM: read-out: percent residual activity of PASK(h)
Chain of PASK(h) (Q96RG2 whole entry): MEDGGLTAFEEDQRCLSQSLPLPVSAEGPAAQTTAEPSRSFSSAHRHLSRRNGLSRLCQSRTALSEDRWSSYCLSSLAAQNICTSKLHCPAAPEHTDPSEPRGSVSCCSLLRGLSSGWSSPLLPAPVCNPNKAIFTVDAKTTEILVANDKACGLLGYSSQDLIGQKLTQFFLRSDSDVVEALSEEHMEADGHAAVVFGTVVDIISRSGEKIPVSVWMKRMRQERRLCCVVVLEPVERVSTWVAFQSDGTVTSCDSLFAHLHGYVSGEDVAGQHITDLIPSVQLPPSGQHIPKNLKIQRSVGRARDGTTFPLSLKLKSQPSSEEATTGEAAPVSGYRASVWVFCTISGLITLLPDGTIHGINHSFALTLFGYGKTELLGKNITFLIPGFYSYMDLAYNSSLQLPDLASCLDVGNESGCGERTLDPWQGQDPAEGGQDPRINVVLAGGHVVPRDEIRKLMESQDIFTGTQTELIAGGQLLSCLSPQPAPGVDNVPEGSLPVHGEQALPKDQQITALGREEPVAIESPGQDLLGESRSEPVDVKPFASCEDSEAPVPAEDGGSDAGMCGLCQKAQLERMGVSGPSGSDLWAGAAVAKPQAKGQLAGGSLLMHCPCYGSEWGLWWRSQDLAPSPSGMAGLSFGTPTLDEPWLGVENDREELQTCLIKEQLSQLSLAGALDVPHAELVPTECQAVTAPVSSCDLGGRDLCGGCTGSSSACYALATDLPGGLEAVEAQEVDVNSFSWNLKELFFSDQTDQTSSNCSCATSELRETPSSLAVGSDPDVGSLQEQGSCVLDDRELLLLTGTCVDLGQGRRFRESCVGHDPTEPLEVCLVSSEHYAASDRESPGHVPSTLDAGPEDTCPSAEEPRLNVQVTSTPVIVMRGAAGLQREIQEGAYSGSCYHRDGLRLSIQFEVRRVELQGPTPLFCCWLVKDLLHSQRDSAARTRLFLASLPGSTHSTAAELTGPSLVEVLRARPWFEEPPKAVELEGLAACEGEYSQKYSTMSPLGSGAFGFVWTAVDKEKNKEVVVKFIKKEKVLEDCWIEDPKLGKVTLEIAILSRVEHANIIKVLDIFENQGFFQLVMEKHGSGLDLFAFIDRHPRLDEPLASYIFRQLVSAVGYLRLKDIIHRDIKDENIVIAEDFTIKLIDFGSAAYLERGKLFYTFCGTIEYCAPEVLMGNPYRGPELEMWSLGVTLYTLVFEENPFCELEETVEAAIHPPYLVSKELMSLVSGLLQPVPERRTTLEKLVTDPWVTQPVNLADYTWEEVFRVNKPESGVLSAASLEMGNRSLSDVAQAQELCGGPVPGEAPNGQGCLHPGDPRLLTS
Description: as §1

PrKX(h) = PrKX(h) (Homo sapiens, UniProt P51817); conditions: read-out: percent residual activity of PrKX(h)
Description: as §1

SRPK2(h) = SRPK2(h) (Homo sapiens, UniProt P78362); conditions: read-out: percent residual activity of SRPK2(h)
Description: as §1

WNK2(h) = WNK2(h) (Homo sapiens, UniProt Q9Y3S1); conditions: read-out: percent residual activity of WNK2(h)
Description: as §1

WNK3(h) = WNK3(h) (Homo sapiens, UniProt Q9BYP7); conditions: read-out: percent residual activity of WNK3(h)
Description: as §1

eEF-2K(h) = eEF-2K(h) (Homo sapiens, UniProt O00418); conditions: read-out: percent residual activity of eEF-2K(h)
Description: as §1

Chain of BrSK2(h) (Q8IWQ3 whole entry): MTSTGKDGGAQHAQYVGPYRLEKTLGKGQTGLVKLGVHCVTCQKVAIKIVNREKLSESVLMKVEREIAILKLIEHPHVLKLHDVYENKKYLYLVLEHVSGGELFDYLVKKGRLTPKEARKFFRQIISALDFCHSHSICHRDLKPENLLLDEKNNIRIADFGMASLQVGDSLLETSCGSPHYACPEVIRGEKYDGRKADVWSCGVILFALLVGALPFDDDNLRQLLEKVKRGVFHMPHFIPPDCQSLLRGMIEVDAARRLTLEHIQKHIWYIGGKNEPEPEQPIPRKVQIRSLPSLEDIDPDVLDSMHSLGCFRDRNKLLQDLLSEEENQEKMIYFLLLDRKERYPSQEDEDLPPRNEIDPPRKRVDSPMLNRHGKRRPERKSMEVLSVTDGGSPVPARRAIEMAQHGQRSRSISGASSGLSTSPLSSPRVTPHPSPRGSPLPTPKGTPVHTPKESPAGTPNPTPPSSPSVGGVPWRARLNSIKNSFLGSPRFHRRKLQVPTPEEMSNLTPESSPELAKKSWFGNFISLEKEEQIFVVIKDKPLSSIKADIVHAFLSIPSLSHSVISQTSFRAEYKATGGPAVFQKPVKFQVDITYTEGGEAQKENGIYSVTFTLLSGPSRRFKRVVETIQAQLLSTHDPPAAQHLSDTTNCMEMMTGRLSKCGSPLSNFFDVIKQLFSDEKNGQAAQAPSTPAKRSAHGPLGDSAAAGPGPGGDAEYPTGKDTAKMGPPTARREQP

Compound | remaining activity at 2.5 µM (BrSK2(h)) | remaining activity at 2.5 µM (CDK9/cyclin T1(h)) | remaining activity at 2.5 µM (CK1γ1(h)) | remaining activity at 2.5 µM (CaMKI(h)) | remaining activity at 2.5 µM (DCAMKL2(h)) | remaining activity at 2.5 µM (DRAK1(h)) | remaining activity at 2.5 µM (DYRK2(h)) | remaining activity at 2.5 µM (EphA1(h)) | remaining activity at 2.5 µM (EphB1(h)) | remaining activity at 2.5 µM (HIPK1(h)) | remaining activity at 2.5 µM (IRAK1(h)) | remaining activity at 2.5 µM (Itk(h)) | remaining activity at 2.5 µM (LIMK1(h)) | remaining activity at 2.5 µM (MST3(h)) | remaining activity at 2.5 µM (Mnk2(h)) | remaining activity at 2.5 µM (NEK3(h)) | remaining activity at 2.5 µM (NLK (h)) | remaining activity at 2.5 µM (PAK5(h)) | remaining activity at 2.5 µM (PASK(h)) | remaining activity at 2.5 µM (PrKX(h)) | also measured
CN1CCCC1CCNC(=O)c1cn2c3c(c(N4CCC(c5cnccn5)C4)c(F)cc3c1=O)Oc1cc3ccccc3cc1-2 (centres unmarked) [Compound A-1] | 96% | 116% | 90% | 95% | 48% | 11% | 70% | 69% | 125% | 95% | 86% | 117% | 97% | 45% | 98% | 94% | 90% | 103% | 10% | 75% | inhibition at 2.5 µM (DRAK1(h)): > 80%; inhibition at 2.5 µM (PASK(h)): > 80%; remaining activity at 2.5 µM (SRPK2(h)): 88%; remaining activity at 2.5 µM (WNK2(h)): 97%; remaining activity at 2.5 µM (WNK3(h)): 98%; remaining activity at 2.5 µM (eEF-2K(h)): 96%
CC(=O)N1CCN(c2ccc3c(=O)c(C(=O)NCCN4CCCC4)c4n(C)c5ccccc5n4c3n2)CC1 [Compound B-1] | 96% | 100% | 100% | 106% | 111% | 117% | 75% | 96% | 75% | 101% | 102% | 102% | 100% | 110% | 115% | 118% | 109% | 101% | 100% | 96% | remaining activity at 2.5 µM (SRPK2(h)): 88%; remaining activity at 2.5 µM (WNK2(h)): 108%; remaining activity at 2.5 µM (WNK3(h)): 120%; remaining activity at 2.5 µM (eEF-2K(h)): 98%

From US20070117770A1, “Human ribosomal DNA (rDNA) and ribosomal RNA (rRNA) nucleic acids and uses thereof” (Cylene Pharmaceuticals, Inc., priority 2005, published 2007)
